Test results: patent US20170298055A1, “sGC STIMULATORS” (IRONWOOD PHARMACEUTICALS, INC., priority 2014, published 2017)

Molecular target: T1, soluble guanylate cyclase (sGC) (Homo sapiens, UniProt Q02108+Q02153)
T1 construct: endogenously expressing soluble guanylate cyclase (sGC); endogenous in cells; host or cells: HEK293
T1 sequence (Q02153 1-619): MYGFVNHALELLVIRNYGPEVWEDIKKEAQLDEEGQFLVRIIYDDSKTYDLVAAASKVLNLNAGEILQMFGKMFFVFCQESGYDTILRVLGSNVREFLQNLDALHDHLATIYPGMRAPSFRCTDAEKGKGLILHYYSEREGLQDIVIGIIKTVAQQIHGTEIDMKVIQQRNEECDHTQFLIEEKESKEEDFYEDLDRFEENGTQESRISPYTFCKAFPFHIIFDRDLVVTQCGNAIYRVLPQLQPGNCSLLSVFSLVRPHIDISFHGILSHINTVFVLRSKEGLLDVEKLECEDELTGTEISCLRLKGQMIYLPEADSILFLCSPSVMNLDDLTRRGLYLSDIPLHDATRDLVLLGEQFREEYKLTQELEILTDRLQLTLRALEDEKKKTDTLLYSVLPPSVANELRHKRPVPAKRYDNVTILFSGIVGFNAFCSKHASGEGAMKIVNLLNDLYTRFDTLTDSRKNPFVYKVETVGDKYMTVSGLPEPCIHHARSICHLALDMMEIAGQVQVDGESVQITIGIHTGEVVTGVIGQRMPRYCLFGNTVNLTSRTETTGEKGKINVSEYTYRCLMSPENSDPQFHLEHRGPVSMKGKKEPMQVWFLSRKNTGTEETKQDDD
T1 sequence (Q02108 1-690): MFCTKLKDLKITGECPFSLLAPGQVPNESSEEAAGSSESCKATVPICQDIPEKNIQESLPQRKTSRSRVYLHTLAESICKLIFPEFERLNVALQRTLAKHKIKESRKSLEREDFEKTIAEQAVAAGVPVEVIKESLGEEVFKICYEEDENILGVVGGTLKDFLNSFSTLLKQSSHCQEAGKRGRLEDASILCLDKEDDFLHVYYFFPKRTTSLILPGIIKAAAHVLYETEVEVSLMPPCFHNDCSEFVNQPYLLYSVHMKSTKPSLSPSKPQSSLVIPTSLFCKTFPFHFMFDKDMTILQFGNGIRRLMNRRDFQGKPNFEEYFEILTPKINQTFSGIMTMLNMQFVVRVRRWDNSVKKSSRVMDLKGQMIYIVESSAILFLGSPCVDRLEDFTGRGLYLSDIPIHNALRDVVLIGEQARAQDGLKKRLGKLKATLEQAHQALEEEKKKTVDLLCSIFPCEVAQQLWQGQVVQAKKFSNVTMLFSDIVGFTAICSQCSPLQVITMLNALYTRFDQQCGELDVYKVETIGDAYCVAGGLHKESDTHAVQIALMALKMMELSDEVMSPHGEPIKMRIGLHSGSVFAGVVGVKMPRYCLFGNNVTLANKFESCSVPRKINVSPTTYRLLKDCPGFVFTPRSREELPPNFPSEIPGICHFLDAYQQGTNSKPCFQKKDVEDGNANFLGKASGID
Assay: sGC-HEK-cGMP assay, LC/MS detection, with SNP incubation (Example 2A)
Assay type: cell-based
Conditions: HEK293 cells, in the presence of 10 μM SNP; top of concentration-response curve not fitted to 100%; read-out: sGC_HEK_LCMS uEC50 (nM) Binned (unconstrained)
Experimental: Human embryonic kidney cells (HEK293), endogenously expressing soluble guanylate cyclase (sGC), were used to evaluate the activity of test compounds. Compounds stimulating the sGC receptor should cause an increase in the intracellular concentration of cGMP. HEK 293 cells were seeded in Dulbecco's Modification of Eagle's Medium supplemented with fetal bovine serum (10% final) and L-glutamine (2 mM final) in a 200 μL volume at a density of 1×10^5 cells/well in a poly-D-lysine coated 96 well flat bottom plate and grown overnight at 37° C. Medium was aspirated and cells were washed with 1× Hank's Buffered Saline Salt Solution (200 μL). Cells were then incubated for 15 minutes at 37° C. with 0.5 mM 3-isobutyl-1-methylxanthine (200 μL). Test article and sodium nitroprusside were then added to the assay mixture (2 μL each) and incubated at 37° C. for 10 minutes. After the 10 minute incubation, the assay mixture was aspirated and 0.1M HCl (200 μL) was added to the cells. The plate was incubated at 4° C. for 30 minutes in the 0.1M HCl to stop the reaction and lysed the cells. The plates were then centrifuged at 1,200 g for 5 minutes at room temperature. Supernatants were collected and transferred to a new flat bottom 96 well plate for analysis. Vehicle controls were carried out using DMSO (1%). A known sGC stimulator, BAY 41-2272, was used as the positive control. Samples were diluted with an equal volume of 1 M Ammonium Acetate (pH 7) to neutralize samples for better chromatography. A 2× cGMP standard curve was prepared in 0.1 M HCl and then diluted with an equal volume of 1 M Ammonium Acetate, with the following final concentrations in nM: 1024, 512, 256, 128, 64, 32, 16, 8, 4, 2, 1. cGMP concentrations were determined from each sample using the LC/MS conditions (Table 2 below) and calculated standard curve. EC50 values were calculated from concentration-response curves generated with GraphPad Prism Software.

EC50	SMILES
100 to 1000 nM	CN(C)CCOc1nc(-c2cc(-c3ccon3)n(Cc3ccccc3F)n2)ncc1F [Compound I-2]
100 to 1000 nM	OCCOc1nc(-c2cc(-c3ccon3)n(Cc3ccccc3F)n2)ncc1F [Compound I-1]
